Drawing on paper PMC8041284, “Tunable Methacrylamides for Covalent Ligand Directed Release Chemistry” (Journal of the American Chemical Society, 2021), this text covers inhibition for 21 compounds.

The target in this experiment is BTK (Homo sapiens, UniProt Q06187). Put plainly: biochemical.
Setting [1] is: read-out: BTK inhibition (%), 0.75 uM BTK, […] probe 3l, 15 min preincubation.

Read-outs that look alike come from different tables or passages of the source. Where a SMILES comes first, the peptide text is derived from it.

Sequence of BTK (Q06187 402-655 limits assumed): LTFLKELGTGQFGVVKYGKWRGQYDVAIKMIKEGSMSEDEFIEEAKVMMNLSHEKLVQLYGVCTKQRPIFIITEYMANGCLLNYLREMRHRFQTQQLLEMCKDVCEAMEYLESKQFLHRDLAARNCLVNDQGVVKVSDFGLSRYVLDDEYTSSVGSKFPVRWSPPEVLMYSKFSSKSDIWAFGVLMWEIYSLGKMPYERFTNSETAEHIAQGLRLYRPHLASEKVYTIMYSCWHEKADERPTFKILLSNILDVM

A word on the inhibition: it is the change of the read-out against control, counted positive when it falls. With `CN[C@@H]1[C@H](O)[C@H](NC)[C@H]2O[C@@]3(O)C(=O)C[C@@H](C)O[C@H]3O[C@@H]2[C@H]1O` [PCM-0214688], under setting [1], the inhibition at 10 µM came out at 2.3%.

For `C[C@@H](NCCc1ccc(O)cc1)[C@@H](O)c1ccc(O)cc1` [PCM-0214689], under setting [1], the inhibition at 10 µM was 0%.

`CC[C@@H]1/C=C(\C)C[C@H](C)C[C@H](OC)[C@H]2O[C@@](O)(C(=O)C(=O)N3CCCC[C@H]3C(=O)O[C@H](/C(C)=C/[C@@H]3CC[C@H](Cl)[C@H](OC)C3)[C@H](C)[C@@H](O)CC1=O)[C@H](C)C[C@@H]2OC` [PCM-0214690]: under setting [1], the inhibition at 10 µM was -13.8%.

`COc1ccc([C@@H]2CC(=O)c3c(O)cc(O[C@@H]4O[C@H](CO)[C@@H](O)[C@H](O)[C@H]4O[C@@H]4O[C@@H](C)[C@H](O)[C@@H](O)[C@H]4O)cc3O2)cc1O` [PCM-0214691]: the inhibition at 10 µM under setting [1] is -10.3%.

With `COC(=O)N1CCN(Cc2cccc(NC(=O)Nc3ccc(C)nc3)c2F)CC1` [PCM-0214694], the inhibition at 10 µM under setting [1] is 0.8%. For the compound `Cc1onc(-c2ccccc2Cl)c1C(=O)N[C@@H]1C(=O)N2[C@@H]1SC(C)(C)[C@@H]2C(=O)O` [PCM-0214695], the inhibition at 10 µM under setting [1] was -5.4%. Same read-out and setting: for `C[C@@H]1CCO[C@H]2Cn3cc(C(=O)NCc4ccc(F)cc4F)c(=O)c(O)c3C(=O)N12` [PCM-0214696] the value was 30.4%; for `CCc1c(C(=O)NCCc2ccc(N3CCCCC3)cc2)[nH]c2ccc(Cl)cc12` [PCM-0214697], 2.3%.

As for `Cc1cc(N2CCOCC2)cc2[nH]c(-c3c(NC[C@@H](O)c4cccc(Cl)c4)cc[nH]c3=O)nc12` [PCM-0214699], the inhibition at 10 µM under setting [1] came to 109%.

Take `CC(=O)OCC(=O)[C@@]12OC(C)(C)O[C@@H]1C[C@H]1[C@@H]3C[C@H](F)C4=CC(=O)C=C[C@]4(C)[C@@]3(F)[C@@H](O)C[C@@]12C` [PCM-0214700]: the inhibition at 10 µM under setting [1] is 19.3%. On to `CC(=O)OCC(=O)[C@@]1(O)CC[C@H]2[C@@H]3CCC4=CC(=O)C=C[C@]4(C)[C@H]3[C@@H](O)C[C@@]21C` [PCM-0214701], for which the inhibition at 10 µM under setting [1] amounted to 2.1%. As for `CC1(C)CC(=O)c2c(C(F)(F)F)nn(-c3ccc(C(N)=O)c(NC4CCC(OC(=O)CN)CC4)c3)c2C1` (stereo not drawn) [PCM-0214703], the inhibition at 10 µM under setting [1] was found to be 1.6%.

Take `NCc1c[nH]c(=S)n1[C@H]1CCc2c(F)cc(F)cc2C1` [PCM-0214705]: the inhibition at 10 µM under setting [1] is -17.1%. For the compound `COC(=O)C1=C(C)NC(C)=C(C(=O)O[C@@H]2CCCN(Cc3ccccc3)C2)[C@@H]1c1cccc([N+](=O)[O-])c1` [PCM-0214706], the inhibition at 10 µM under setting [1] came to 80.9%. Take `CCC(=O)O[C@]1(C(=O)SCF)[C@H](C)C[C@H]2[C@@H]3C[C@H](F)C4=CC(=O)C=C[C@]4(C)[C@@]3(F)[C@@H](O)C[C@@]21C` [PCM-0214707]: the inhibition at 10 µM under setting [1] was found to be 15.2%. `COC(=O)[C@H](Cc1ccccc1)NC(=O)[C@@H](N)CC(=O)O` [PCM-0214708] (H-Asp-Phe-OMe): under setting [1], the inhibition at 10 µM stood at 6.2%.

For the compound `C[C@@H]1C/C=C/C=C/C=C/C=C/[C@H](O[C@@H]2O[C@H](C)[C@@H](O)[C@H](N)[C@@H]2O)C[C@@H]2O[C@](O)(C[C@@H](O)C[C@H]3O[C@@H]3/C=C/C(=O)O1)C[C@H](O)[C@H]2C(=O)O` [PCM-0214709], the inhibition at 10 µM under setting [1] was -22.6%.

Consider `C/C=C(\C)C(=O)N[C@@H](c1ccccc1)[C@@H](O)C(=O)O[C@H]1C[C@@]2(O)[C@@H](OC(=O)c3ccccc3)[C@@H]3[C@]4(OC(C)=O)CO[C@@H]4C[C@H](O)[C@@]3(C)C(=O)[C@H](OC(C)=O)C(=C1C)C2(C)C` [PCM-0214711], for which the inhibition at 10 µM (read-out: BTK inhibition (%)) was -8.6%.

In the case of `CC(=O)O[C@]1(C(C)=O)CC[C@H]2[C@@H]3C=C(Cl)C4=CC(=O)[C@@H]5C[C@@H]5[C@]4(C)[C@H]3CC[C@@]21C` [PCM-0214712], the inhibition at 10 µM under setting [1] was 21%. On to `NC[C@H](O)c1ccc(O)c(O)c1` [PCM-0214713], for which the inhibition at 10 µM under setting [1] is -5.4%.

In the case of `CC(C)C[C@H](NC(=O)[C@@H](NC(=O)c1cccc(-c2ccccc2)n1)[C@@H](C)O)B(O)O` [PCM-0214714], the inhibition at 10 µM under setting [1] worked out at 6.2%.
